These results are taken from ChEMBL document CHEMBL4190169 (Medchemcomm, 2016).

Data set [1] addresses T1, Prostaglandin G/H synthase 1 (Ovis aries, UniProt P05979).
T1 sequence (P05979 whole entry): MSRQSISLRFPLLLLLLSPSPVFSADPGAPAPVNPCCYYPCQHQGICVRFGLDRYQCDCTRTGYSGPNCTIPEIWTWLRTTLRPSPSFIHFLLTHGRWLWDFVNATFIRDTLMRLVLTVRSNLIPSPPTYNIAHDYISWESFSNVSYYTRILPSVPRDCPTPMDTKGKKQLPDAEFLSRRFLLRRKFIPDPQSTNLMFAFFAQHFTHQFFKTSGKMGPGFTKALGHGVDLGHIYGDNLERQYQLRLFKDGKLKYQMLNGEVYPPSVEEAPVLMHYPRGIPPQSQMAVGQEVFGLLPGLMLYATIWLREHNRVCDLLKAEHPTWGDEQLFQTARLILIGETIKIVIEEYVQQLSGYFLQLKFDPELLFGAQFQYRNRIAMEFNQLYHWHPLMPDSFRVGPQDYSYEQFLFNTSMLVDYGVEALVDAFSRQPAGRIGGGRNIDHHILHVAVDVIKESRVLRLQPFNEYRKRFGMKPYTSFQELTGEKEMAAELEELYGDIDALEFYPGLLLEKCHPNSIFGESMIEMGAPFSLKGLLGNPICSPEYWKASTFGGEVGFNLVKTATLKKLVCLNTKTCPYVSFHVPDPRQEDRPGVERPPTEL
Kind of data set: Inhibition of ovine COX1 using arachidonic acid as substrate incubated for 5 mins followed by substrate addition measured after 2 mins by enzyme immunoassay.

In data set [2] the test system is Rattus norvegicus. The data set is described as follows: Analgesic activity in gamma-irradiated carrageenan-induced Wistar rat hyperalgesia model assessed as nociceptive threshold at 100 mg/kg, ip administered 1 hr prior to carrageenan challenge measured after 3 hrs by analgesimetric analysis (reference value: 37.60 +/- 0.79 g). Type of data set: functional.
In data set [3] the test system is Rattus norvegicus. The data set is described as follows: Antiinflammatory activity in gamma-irradiated carrageenan-induced Wistar rat paw edema model assessed as paw oedema at 100 mg/kg, ip administered 1 hr prior to carrageenan challenge measured after 3 hrs (reference value: 89.5 +/- 1.47%). Type of data set: functional. For orientation: In the carrageenan paw model, swelling and tenderness develop within hours.

Data set [4] has as its system Rattus norvegicus. The data set is described as follows: Ulcerogenic activity in Wistar rat assessed as appearance of ulcers and erosions in stomach by measuring ulcer index at 100 mg/kg, po measured after 4 hrs. Type of data set: toxicity, organism-based. The note with it: in vivo.
Data set [5] can be described thus: Acute toxicity in Swiss albino mouse assessed as mortality administered ip measured for 24 hrs. Type of data set: organism-based. The note with it: in vivo, read-out: ALD50.

Usually IC50 stands for the concentration that gives 50% inhibition. Turning to `Nc1nnc(S)s1`, the IC50 in data set [1] is above 50 µM.
Regarding `Cc1ccc(/C=N/C2=NN3C(=O)CSC3S2)cc1` (stereo not given), the IC50 in data set [1] is above 50 µM.
In data set [1], `N#CC1=C(N)N=C2SC(=S)NN2C1c1ccc([N+](=O)[O-])cc1` (stereo not given) had an IC50 above 50 µM.
In turn, `O=S(=O)(Nc1ncccn1)c1ccc(NCNc2n[nH]c(=S)s2)cc1` yielded an IC50 in data set [1] above 50 µM.
In turn, `COc1ccc(C2SCC(=O)N2c2n[nH]c(=S)s2)cc1` (stereo not given) showed an IC50 in data set [1] of 24 µM. Also, the Activity in the data set on Rattus norvegicus [2] is on record as 62.37 g; in the data set on Rattus norvegicus [3] it was 31.5%. Moreover, the UI in the data set on Rattus norvegicus [4] was 0.26.
As to `S=C1NN2C(c3ccccc3)=CC(c3ccc(Cl)cc3)N=C2S1` (stereo not given), in data set [1], the IC50 was 30.7 µM. In addition, the Activity in the data set on Rattus norvegicus [2] came to 78.51 g; in the data set with Rattus norvegicus [3], 43.1%. The UI with Rattus norvegicus [4] was found to be 0.6.
For the molecule `N#CC1=C(N)N=C2SC(=S)NN2C1c1ccc(Cl)cc1` (stereo not given), the IC50 in data set [1] was above 50 µM.
In turn, `O=C1CSC2SC(/N=C/c3ccc(Br)cc3)=NN12` (stereo not given) showed an IC50 in data set [1] above 50 µM. The Activity in the data set with Rattus norvegicus [2] is recorded as 44.91 g; with Rattus norvegicus [3], 50.49%. The UI with Rattus norvegicus [4] was determined as 0.
The molecule `S=c1[nH]nc(/N=C/c2ccc(Cl)cc2)s1` showed an IC50 in data set [1] above 50 µM.
The same measure, in the same setting: in the case of `COc1ccc(C2C(C#N)=C(N)N=C3SC(=S)NN32)cc1` (stereo not given) it was above 50 µM.
In data set [1], `O=S(=O)(Nc1ccccn1)c1ccc(NCNc2n[nH]c(=S)s2)cc1` returned an IC50 above 50 µM.
With `COc1ccc(/C=N/c2n[nH]c(=S)s2)cc1`, the IC50 in data set [1] was found to be 41.7 µM. Also, the Activity was 56.3 g with Rattus norvegicus [2] and 41.53% in the data set with Rattus norvegicus [3]. In addition, the UI in the data set on Rattus norvegicus [4] turned out to be 0.38.
As to `O=S(=O)(Nc1nccs1)c1ccc(NCNc2n[nH]c(=S)s2)cc1`, in data set [1], the IC50 is above 50 µM. The Activity in the data set on Rattus norvegicus [2] was found to be 90.21 g; with Rattus norvegicus [3] it was 24.6%. Also, the LD50 at 24 h in data set [5] is above 1000 mg/kg. The UI in the data set on Rattus norvegicus [4] was 0.
In turn, `N=c1cc(Nc2ccc(S(N)(=O)=O)cc2)n2[nH]c(=S)sc2n1` displayed an IC50 in data set [1] above 50 µM.
On the same count and under the same terms, for `Cc1ccc(C2SCC(=O)N2c2n[nH]c(=S)s2)cc1` (stereo not given) the value was above 50 µM.
Still for that read-out and setting: for `S=C1NN2C(c3ccccc3)=CC(c3ccccc3Cl)N=C2S1` (stereo not given) the value was above 50 µM; for `CN(C)c1ccc(C2C=C(c3ccccc3)N3NC(=S)SC3=N2)cc1` (stereo not given), above 50 µM.
Turning to `N=c1cc(Nc2ccc(S(=O)(=O)Nc3nccs3)cc2)n2[nH]c(=S)sc2n1`, the IC50 in data set [1] was above 50 µM. Further, the Activity in the data set on Rattus norvegicus [2] worked out at 76.51 g; in the data set on Rattus norvegicus [3], 25.13%. In addition, in data set [5], the LD50 at 24 h was above 1000 mg/kg. The UI in the data set on Rattus norvegicus [4] stood at 0.05.
`NS(=O)(=O)c1ccc(NCNc2n[nH]c(=S)s2)cc1` showed an IC50 in data set [1] above 50 µM.
Regarding `S=c1[nH]nc(/N=C/c2ccc(Br)cc2)s1`, the IC50 in data set [1] is above 50 µM. Besides, the Activity in the data set on Rattus norvegicus [2] turned out to be 95.6 g; in the data set on Rattus norvegicus [3], 45.62%. In the data set with Rattus norvegicus [4], the UI turned out to be 0.
`N=c1cc(Nc2ccc(S(=O)(=O)Nc3ccccn3)cc2)n2[nH]c(=S)sc2n1`: the IC50 in data set [1] is above 50 µM. For the same molecule, the Activity with Rattus norvegicus [2] came to 85.8 g; in the data set on Rattus norvegicus [3] it was 24.21%. Further, the LD50 at 24 h in data set [5] is above 800 mg/kg. Also, the UI with Rattus norvegicus [4] turned out to be 0.05.
`Cc1ccc(/C=N/c2n[nH]c(=S)s2)cc1` yielded an IC50 in data set [1] above 50 µM.
`CN(C)c1ccc(C2C(C#N)=C(N)N=C3SC(=S)NN32)cc1` (stereo not given) yielded an IC50 in data set [1] above 50 µM. Moreover, the Activity in the data set on Rattus norvegicus [2] is listed as 53.88 g; in the data set on Rattus norvegicus [3] it was 43.7%. Besides, the UI in the data set with Rattus norvegicus [4] is 0.
`Cc1ccnc(NS(=O)(=O)c2ccc(NCNc3n[nH]c(=S)s3)cc2)n1` returned an IC50 in data set [1] above 50 µM. The Activity with Rattus norvegicus [2] is listed as 80.78 g; with Rattus norvegicus [3], 25.31%. Moreover, the LD50 at 24 h in data set [5] is above 800 mg/kg. Also, the UI in the data set with Rattus norvegicus [4] was found to be 0.05.
On to `O=C1CSC(c2ccc(Br)cc2)N1c1n[nH]c(=S)s1` (stereo not given), for which 1.32 µM corresponded to half-maximal inhibition in data set [1] (IC50). For the same molecule, the Activity is listed as 51.51 g in the data set on Rattus norvegicus [2] and 25.07% in the data set on Rattus norvegicus [3]. Further, in data set [5], the LD50 at 24 h was above 1000 mg/kg. Besides, in the data set on Rattus norvegicus [4], the UI was 0.45.
`O=C1CSC(c2ccc(Cl)cc2)N1c1n[nH]c(=S)s1` (stereo not given) had an IC50 in data set [1] above 50 µM.
On the same count and under the same terms, for `S=C1NN2C(c3ccccc3)=CC(c3ccc(Br)cc3)N=C2S1` (stereo not given) the value was above 50 µM.
Same read-out and setting: for `Cc1cc(C)nc(NS(=O)(=O)c2ccc(NCNc3n[nH]c(=S)s3)cc2)n1` the value was above 50 µM; for `O=C1CSC2SC(/N=C/c3ccc(Cl)cc3)=NN12` (stereo not given), above 50 µM.
In turn, `N#CC1=C(N)N=C2SC(=S)NN2C1c1ccc(Br)cc1` (stereo not given) had a half-inhibitory concentration (IC50) in data set [1] above 50 µM. The figures for the Activity in the data set with Rattus norvegicus [2] and in the data set with Rattus norvegicus [3] were 60.51 g and 31.3%, respectively. The UI in the data set with Rattus norvegicus [4] is on record as 0.05.
On to `COc1ccc(/C=N/C2=NN3C(=O)CSC3S2)cc1` (stereo not given), for which, in data set [1], the IC50 was above 50 µM. The Activity in the data set on Rattus norvegicus [2] was found to be 54.13 g; with Rattus norvegicus [3], 15.47%. For the same molecule, in data set [5], the LD50 at 24 h was above 800 mg/kg. For the same molecule, the UI in the data set on Rattus norvegicus [4] is reported as 0.05.
`N=c1cc(Nc2ccc(S(=O)(=O)Nc3ncccn3)cc2)n2[nH]c(=S)sc2n1`: in data set [1], the IC50 is above 50 µM.
With `COc1ccc(C2C=C(c3ccccc3)N3NC(=S)SC3=N2)cc1` (stereo not given), half-maximal inhibition in data set [1] (IC50) was put at 1.34 µM. For the same molecule, the values for the Activity with Rattus norvegicus [2] and in the data set with Rattus norvegicus [3] were 66.6 g and 43.6%, respectively. In the data set on Rattus norvegicus [4], the UI turned out to be 0.64.
For `N#CC1=C(N)N=C2SC(=S)NN2C1c1ccccc1` (stereo not given), the half-maximal inhibitory concentration (IC50) in data set [1] is above 50 µM.
As to `Cc1ccc(-c2cc(C(F)(F)F)nn2-c2ccc(S(N)(=O)=O)cc2)cc1` [CELECOXIB], the Activity in the data set with Rattus norvegicus [2] was determined as 90.23 g; in the data set with Rattus norvegicus [3] it was 18.61%. Besides, the UI in the data set with Rattus norvegicus [4] is 0.
